# In patent US7141648B2, “Synthesis of cyclosporin analogs” (priority 2001, dated 2006):
# Read-outs that look alike come from different tables or passages of the source.
# Key:
# [1] = system: hearts transplanted from Wistar Furth rats to Lewis rats; experiment: rat heart transplant model; assay type: in vivo
# Text: If graft dysfunction was noted during the 30-day post-transplantation period, the animal was sacrificed. If the animal survived longer than 30 days post-transplantation, the test and control articles were discontinued and the animal was allowed to continue until graft dysfunction or up to 100 days post-transplantation.
# [2] = system: islets from a CBA/J mouse transplanted into diabetic Balb/c mouse recipients; experiment: islet cell allotransplantation mouse model; settings: especially apparent at 25 mg/kg/day
# Text: Blood glucose was monitored daily until the time of graft failure, as defined by a glucose level greater than 17 mmol/L on two consecutive days.
# [3] = system: Male DBA/1 Lac J mice immunized with chick type II collagen; experiment: collagen-induced arthritis model in the mouse; assay type: in vivo; settings: for negative erosion scores compared to vehicle treatment group: PIP joint
# Procedure: Male DBA/1 Lac J mice, kept under virus antibody free conditions, were immunized subcutaneously at 8 to 10 weeks of age with 100 microgram of chick type II collagen, emulsified in Freund's complete adjuvant. […] Animals assigned to the treatment protocol (12/group) were dosed starting on the day of disease onset (˜Day 28) until sacrifice on Day 38.
# Evaluated parameters included mortality, serum creatinine, histology, and outcome assessments, such as clinical scoring (visual), hind paw swelling, histological scoring, erosion scoring, and immunohistochemistry.
# Erosion scoring was done in a blinded manner by examining sagittal sections of the proximal interphalangeal (PIP) joint of the middle digit for the presence or absence of erosions (defined as demarcated defects in cartilage or bone filled with inflammatory tissue). This approach allowed for comparisons of the same joint.
# [4] = system: New Zealand White rabbits immunized with ovalbumin; experiment: antigen-induced arthritis model in the rabbit; assay type: in vivo
# Procedure: New Zealand White rabbits, maintained under specific pathogen free conditions, were immunized with 10 mg of ovalbumin in saline emulsified with Freund's complete adjuvant that was given intramuscularly and subcutaneously into several sites in the nape of the neck. Fourteen days later, all animals started receiving 2 daily intra-articular injections of 5 mg ovalbumin and 65 ng of human recombinant transforming growth factor 2 in saline.
# Animals assigned to the treatment protocol (8/group) were dosed starting on the day of disease onset (˜Day 28) until sacrifice on Day 42.
# Evaluated parameters included mortality, body weight, serum creatinine, histology, and outcome assessments such as knee joint swelling, synovial fluid counts, gross postmortem analysis, and histology.
# rats, dogs, and primates = experiment: repeated-dose oral toxicity studies; assay type: in vivo
# [5] = for Area under the curve / Cmax: male rabbits, i.v. 10 mg/kg/day, mean ± SD
# Procedure: (§1) On Days 1 and 7, blood samples were collected prior to drug administration and at 0.5, 1, 2, 4, 8, 12, 18, and 24 hours post-dose to generate a pharmacokinetic profile. Other evaluated parameters included clinical observations, body weight, food consumption, hematology, clinical chemistry, gross pathology, and histopathological examination of selected tissues/organs.
# Blood samples were analyzed via high performance liquid chromatography coupled with mass spectrometry (LCMS).
# rabbits = experiment: toxicokinetic/nephrotoxicity study in the rabbit model, 30 days
# Procedure: as §1
smiles,measurement,setting,value
C=C/C=C/C[C@@H](C)[C@@H](O)[C@H]1C(=O)N[C@@H](CC)C(=O)N(C)CC(=O)N(C)[C@@H](CC(C)C)C(=O)N[C@@H](C(C)C)C(=O)N(C)[C@@H](CC(C)C)C(=O)N[C@@H](C)C(=O)N[C@H](C)C(=O)N(C)[C@@H](CC(C)C)C(=O)N(C)[C@@H](CC(C)C)C(=O)N(C)[C@@H](C(C)C)C(=O)N1C [ISATX247],graft function after discontinuation of dosing,"[1]; 100 days post-transplant (70 days post discontinuation of dosing), a number of animals",still had functioning grafts at 100 days post-transplant
same,increase of survival time over Cyclosporine A,[1]; optimal dose of 1.75 mg/kg/day,approximately 3 fold
same,toxicity compared to cyclosporine A as the dose level increased,[2],less toxic than cyclosporine A
same,negative erosion scores compared to vehicle treatment group,[3]; 250 μg/mouse i.p. daily,higher negative erosion scores
same,prevention of the development of joint erosions,[3]; 500 μg/mouse,significantly prevent the development of joint erosions
same,negative erosion scores compared to vehicle treatment group,[3]; 500 μg/mouse i.p. daily,significantly higher
same,synovial fluid counts,[4]; prevention protocol,significant reductions
same,synovial histopathological scores compared to vehicle control,"[4]; prevention protocol, after 28 days of therapy, s.c.",significant decrease
same,potency compared to cyclosporine A in treatment and prevention of arthritis,"[4]; rabbit, in vivo",equivalent or potentially more potent than cyclosporine A
same,macroscopic arthritis score,[4]; treatment protocol,significant reduction
same,synovial histopathological scores of animals with established arthritis compared to vehicle controls,"[4]; treatment protocol, 14 days of treatment",Significant amelioration
same,only toxicological effect noted in all species,"rats, dogs, and primates",diarrhea/loose feces
same,tolerability,"rats, dogs, and primates",well-tolerated
same,pharmacokinetic parameters in female rabbits compared with male rabbits,"[5]; female rabbits, 10 mg/kg/day, exception: maximum concentration on Day 7",not significantly different
same,Area under the curve,[5]; Day 1,5659 ± 1309 ng·h/mL
same,Cmax,[5]; Day 1,1915 ± 149 ng/mL
same,Area under the curve,[5]; Day 7,5697 ± 1373 ng·h/mL
same,Cmax,[5]; Day 7,1959 ± 470 ng/mL
same,"examination of organs, female rabbits","rabbits; 15 mg/kg, 3 female rabbits that completed the study",No changes
same,"examination of organs, male rabbits","rabbits; 15 mg/kg, male rabbits",decrease in spermatogenesis
same,Percent Change in Serum Creatinine Levels Over Baseline,"rabbits; male rabbits, 10 mg/kg, Day 15",+1%
same,Percent Change in Serum Creatinine Levels Over Baseline,"rabbits; male rabbits, 10 mg/kg, Day 30",+10%
same,Percent Change in Serum Creatinine Levels Over Baseline,"rabbits; male rabbits, 15 mg/kg, Day 15",−19%
same,Percent Change in Serum Creatinine Levels Over Baseline,"rabbits; male rabbits, 15 mg/kg, Day 30",−11%
same,hematological parameters,rabbits; rabbits,No significant changes
